Peptide text beside a SMILES is read from it.

One data set is described as follows: Slurry ripening comparative co-crystal screening (solid form outcome). The format is physicochemical. The following applies: Compound 1 + coformer; EtOAc saturated with coformer; cycled 25° C./5° C., 10 days. As to the method:
In certain embodiments, for example, the method may comprise slurry ripening. […] In certain embodiments, the solvent is 1-butanol or toluene.
In certain embodiments, for example, the saturated coformer solution may be prepared by 1) combining the quantity of coformer in a quantity (for example, about 2 mL) of solvent; 2) mixing the combined quantities at a predetermined temperature (for example 23° C.) for a predetermined period of time (for example at least about 16 hours or less than about 16 hours) to form a suspension; and 3) filtering the suspension (for example filtering the suspension through an 0.2 micron PTFE filter if the solvent is an organic solvent or an 0.45 micron filter if the solvent is an organic solvent mixed with water). In certain embodiments, for example, the solvent may be selected from the group consisting of ethyl alcohol, a solution of ethyl acetate and heptane (for example a solution having an ethyl acetate to heptane at ratio of 2:8 v/v), a solution of acetonitrile and water (for example a solution having a acetonitrile to water ratio of 1:9 v/v), and t-butyl methyl ether (MTBE), or a combination of two or more of the foregoing.
A series of comparative crystallization experiments were conducted with 41 potential coformers and 7 solvents by two different methods.
Take `O=C(O)c1ccc2ccccc2c1O` [1-Hydroxy-2-Naphthoic acid]: the “Slurry ripening result, EtOAc” value is “PCH”. Same read-out and setting: under `O=C(O)[C@H](O)[C@@H](O)C(=O)O` [(+)-L-Tartaric acid] stands “F*”; under `COC(=O)[C@H](Cc1ccccc1)NC(=O)[C@@H](N)CC(=O)O` [Aspartame] (H-Asp-Phe-OMe), “A + F”; under (−)-L-Malic acid, “PCH”.

The data set is the same for the next values; noted with them: Compound 1 + coformer; EtOH saturated with coformer; cycled 25° C./5° C., 10 days.
Take `NC(=O)c1ccncc1` [Isonicotinamide]: the “Slurry ripening result, EtOH” value is on record as “B*”.

For the compound `NC(=O)c1cccnc1` [Nicotinamide], the “Slurry ripening result, EtOH” value is “PCH”. Take `O=c1c(O)c(-c2ccc(O)c(O)c2)oc2cc(O)cc(O)c12` [Quercetin]: the “Slurry ripening result, EtOH” value is recorded as “PCH”. Turning to (−)-L-Malic acid, the “Slurry ripening result, EtOH” value is recorded as “PCH”.

The same data set, now with this note: Compound 1 + coformer; MTBE saturated with coformer; cycled 25° C./5° C., 10 days.
Take `O=C(O)c1ccc2ccccc2c1O` [1-Hydroxy-2-Naphthoic acid]: the “Slurry ripening result, MTBE” value is listed as “A*”. As for `CC1(C(=O)O)CCC(C(=O)O)C1(C)C` (stereo not drawn) [(+)-Camphoric acid], the “Slurry ripening result, MTBE” value was “PCH”. Take `O=C(O)[C@@H](O)c1ccccc1` [L-(+)-Mandelic acid]: the “Slurry ripening result, MTBE” value was “PCH”.

In the case of `Oc1cccc(O)c1O` [Pyrogallol], the “Slurry ripening result, MTBE” value is on record as “PCH”.

On to `NC(N)=O` [Urea], for which the “Slurry ripening result, MTBE” value was “PCH”.

The data set is the same for the next values; noted with them: Compound 1 + coformer; Toluene saturated with coformer; cycled 25° C./5° C., 10 days.
As for `O=C(O)CC(=O)O` [Malonic acid], the “Slurry ripening result, Toluene” value was “F*”.
